# Non-standard residues stand in square brackets, D forms with d. Residues, ends and D or L forms follow the SMILES beside them. *: point of attachment. Cbz = O=C(OCc1ccccc1)*; Bn = c1ccc(C*)cc1
# Tested on: LRF-induced luteinizing hormone (LH) release in rat anterior pituitary cell cultures
# Assay: In vitro test in rat anterior pituitary cell cultures: inhibition of LRF-induced LH release into the culture medium
# Format: cell-based
# Procedure: octapeptides of this invention are screened for LRF antagonist activity in vitro using rat anterior pituitary cell cultures as described by Vale et al. [Endocrinology, 91, 562 (1972)]. The inhibition of LRF-induced luteinizing hormone (LH) release into the culture medium is the endpoint in this in vitro bioassay. Active peptides are then tested in vivo by the procedures of Humphrey et al. [Endocrinology, 92, 1515 (1972)]. Antagonist activity is assessed by the inhibition of LRF-induced LH release in the female rat and LRF-induced ovulation in the rabbit.
# Following are the results of the above in vitro tests on certain preferred compounds.
# [1] = first series, compound 1×10^-8 molar, LRF 5×10^-10, LRF control 52.80, saline control 13.28
# [2] = first series, compound 1×10^-9 molar, LRF 5×10^-10, LRF control 52.80, saline control 13.28
# [3] = first series, compound 1×10^-10 molar, LRF 5×10^-10, LRF control 52.80, saline control 13.28
# [4] = first series, compound 2.5×10^-9 molar, LRF 5×10^-10, LRF control 52.80, saline control 13.28
# [5] = first series, compound 2.5×10^-10 molar, LRF 5×10^-10, LRF control 52.80, saline control 13.28
# [6] = first series, compound 5×10^-9 molar, LRF 5×10^-10, LRF control 52.80, saline control 13.28
# [7] = first series, compound 5×10^-10 molar, LRF 5×10^-10, LRF control 52.80, saline control 13.28
# [8] = second series, compound 1×10^-9 molar, LRF 5×10^-10, LRF control 69.43, saline control 18.17
# [9] = second series, compound 1×10^-10 molar, LRF 5×10^-10, LRF control 69.43, saline control 18.17
# [10] = second series, compound 2.5×10^-9 molar, LRF 5×10^-10, LRF control 69.43, saline control 18.17
# [11] = second series, compound 2.5×10^-10 molar, LRF 5×10^-10, LRF control 69.43, saline control 18.17
# [12] = second series, compound 5×10^-10 molar, LRF 5×10^-10, LRF control 69.43, saline control 18.17
# [13] = compound 1×10^-8 molar, LRF 5×10^-10, LRF control 46.58, saline control 9.10
# [14] = compound 1×10^-9 molar, LRF 5×10^-10, LRF control 46.58, saline control 9.10
# [15] = compound 5×10^-8 molar, LRF 5×10^-10, LRF control 46.58, saline control 9.10
# [16] = compound 5×10^-9 molar, LRF 5×10^-10, LRF control 46.58, saline control 9.10
# [17] = compound 1×10^-8 molar, LRF 3.5×10^-10, LRF control 42.38, saline control 8.72
# [18] = compound 1×10^-9 molar, LRF 3.5×10^-10, LRF control 42.38, saline control 8.72
# [19] = compound 1×10^-10 molar, LRF 3.5×10^-10, LRF control 42.38, saline control 8.72
# [20] = compound 2×10^-9 molar, LRF 3.5×10^-10, LRF control 42.38, saline control 8.72
# [21] = compound 2.5×10^-10 molar, LRF 3.5×10^-10, LRF control 42.38, saline control 8.72
# [22] = compound 3.5×10^-9 molar, LRF 3.5×10^-10, LRF control 42.38, saline control 8.72
# [23] = compound 6×10^-9 molar, LRF 3.5×10^-10, LRF control 42.38, saline control 8.72
# [24] = compound 6×10^-10 molar, LRF 3.5×10^-10, LRF control 42.38, saline control 8.72
# [25] = compound 2×10^-8 molar, LRF 3.5×10^-10, LRF control 42.38, saline control 8.72
compound,measurement,setting,value
N^α -BENZYLOXYCARBONYL-O-BENZYL-L-SERYL-L-TRYPTOPHYL-L-SERYL-L-TYROSYL-D-PENTAMETHYLPHENYLALANYL-L-LEUCYL-L-ARGINYL-L-PROLINE N-ETHYLAMIDE,% LH Release Inhibition,[1],104%
same,LH Value,[1],11.58 ng/mL
same,% LH Release Inhibition,[2],91%
same,LH Value,[2],16.69 ng/mL
same,% LH Release Inhibition,[3],36%
same,LH Value,[3],38.59 ng/mL
same,% LH Release Inhibition,[4],105%
same,LH Value,[4],11.35 ng/mL
same,% LH Release Inhibition,[5],47%
same,LH Value,[5],34.06 ng/mL
same,% LH Release Inhibition,[6],100%
same,LH Value,[6],13.16 ng/mL
same,% LH Release Inhibition,[7],70%
same,LH Value,[7],25.16 ng/mL
same,% LH Release Inhibition,[8],104%
same,LH Value,[8],16.00 ng/mL
same,% LH Release Inhibition,[9],46%
same,LH Value,[9],46.11 ng/mL
same,% LH Release Inhibition,[10],98%
same,LH Value,[10],19.09 ng/mL
same,% LH Release Inhibition,[11],77%
same,LH Value,[11],30.08 ng/mL
same,% LH Release Inhibition,[12],90%
same,LH Value,[12],23.26 ng/mL
CCNC(=O)[C@@H]1CCCN1C(=O)[C@H](CCCNC(=N)N)NC(=O)[C@H](CC(C)C)NC(=O)[C@@H](Cc1ccccc1)NC(=O)[C@H](Cc1ccc(O)cc1)NC(=O)[C@H](CO)NC(=O)[C@H](Cc1c[nH]c2ccccc12)NC(=O)[C@H](CCC(N)=O)NC(=O)OCc1ccccc1 [N^α -Benzyloxycarbonyl-L-glutaminyl-L-tryptophyl-L-seryl-L-tyrosyl-D-phenylalanyl-L-leucyl-L-arginyl-L-proline N-ethylamide] (Cbz-QWSY[dF]LRP-NHEt),% LH Release Inhibition,[13],71%
same,LH Value,[13],19.91 ng/mL
same,% LH Release Inhibition,[14],23%
same,LH Value,[14],38.13 ng/mL
same,% LH Release Inhibition,[15],95%
same,LH Value,[15],11.16 ng/mL
same,% LH Release Inhibition,[16],42%
same,LH Value,[16],30.85 ng/mL
N^α -Benzyloxycarbonyl-O-benzyl-L-seryl-L-tryptophyl-L-seryl-L-tyrosyl-DL-pentamethylphenylalanyl-L-leucyl-L-arginyl-L-proline N-ethylamide,% LH Release Inhibition,[1],102%
same,LH Value,[1],12.61 ng/mL
same,% LH Release Inhibition,[2],89%
same,LH Value,[2],17.58 ng/mL
same,% LH Release Inhibition,[4],102%
same,LH Value,[4],12.47 ng/mL
same,% LH Release Inhibition,[5],61%
same,LH Value,[5],28.53 ng/mL
same,% LH Release Inhibition,[6],96%
same,LH Value,[6],14.80 ng/mL
same,% LH Release Inhibition,[7],62%
same,LH Value,[7],28.31 ng/mL
same,% LH Release Inhibition,[8],100%
same,LH Value,[8],18.35 ng/mL
same,% LH Release Inhibition,[9],42%
same,LH Value,[9],48.03 ng/mL
same,% LH Release Inhibition,[10],108%
same,LH Value,[10],13.91 ng/mL
same,% LH Release Inhibition,[11],65%
same,LH Value,[11],36.04 ng/mL
same,% LH Release Inhibition,[12],87%
same,LH Value,[12],24.94 ng/mL
CCNC(=O)[C@@H]1CCCN1C(=O)[C@H](CCCNC(=N)N)NC(=O)[C@H](CC(C)C)NC(=O)[C@@H](Cc1ccccc1)NC(=O)[C@H](Cc1ccc(O)cc1)NC(=O)[C@H](CO)NC(=O)[C@H](Cc1c[nH]c2ccccc12)NC(=O)[C@H](COCc1ccccc1)NC(=O)OCc1ccccc1.Cl [N^α -Benzyloxycarbonyl-O-benzyl-L-seryl-L-tryptophyl-L-seryl-L-tyrosyl-D-phenylalanyl-L-leucyl-L-arginyl-L-proline N-ethylamide hydrochloride] (Cbz-S(Bn)WSY[dF]LRP-NHEt),% LH Release Inhibition,[17],99%
same,LH Value,[17],9.16 ng/mL
same,% LH Release Inhibition,[18],68%
same,LH Value,[18],19.35 ng/mL
same,% LH Release Inhibition,[19],18%
same,LH Value,[19],36.48 ng/mL
same,% LH Release Inhibition,[20],83%
same,LH Value,[20],14.48 ng/mL
same,% LH Release Inhibition,[21],37%
same,LH Value,[21],29.88 ng/mL
same,% LH Release Inhibition,[22],93%
same,LH Value,[22],11.16 ng/mL
same,% LH Release Inhibition,[23],93%
same,LH Value,[23],10.95 ng/mL
same,% LH Release Inhibition,[24],50%
same,LH Value,[24],25.41 ng/mL
N^α -Benzyloxycarbonyl-N^γ -benzyl-L-glutaminyl-L-tryptophyl-L-seryl-L-tyrosyl-D-phenylalanyl-L-leucyl-L-arginyl-L-proline N-ethylamide,% LH Release Inhibition,[17],92%
same,LH Value,[17],11.28 ng/mL
same,% LH Release Inhibition,[18],56%
same,LH Value,[18],23.66 ng/mL
same,% LH Release Inhibition,[19],35%
same,LH Value,[19],30.60 ng/mL
same,% LH Release Inhibition,[25],94%
same,LH Value,[25],10.77 ng/mL
same,% LH Release Inhibition,[20],60%
same,LH Value,[20],22.09 ng/mL
same,% LH Release Inhibition,[21],20%
same,LH Value,[21],35.62 ng/mL
same,% LH Release Inhibition,[22],61%
same,LH Value,[22],21.76 ng/mL
same,% LH Release Inhibition,[23],81%
same,LH Value,[23],15.07 ng/mL
same,% LH Release Inhibition,[24],51%
same,LH Value,[24],25.13 ng/mL
"LRF: luteinizing hormone releasing factor, also referred to as luteinizing hormone releasing hormone, or LH-RH; stimulates secretion of luteinizing hormone (QHWSYGLRPG; Gonadoliberin-1; UniProt P01148 24-33, looked up) [reference compound]",LH Value,"LRF alone 3.5×10^-10 molar, saline control 8.72",42.38 ng/mL
same,LH Value,"LRF alone 5×10^-10 molar, saline control 9.10",46.58 ng/mL
same,LH Value,"first series, LRF alone 5×10^-10 molar, saline control 13.28",52.80 ng/mL
same,LH Value,"second series, LRF alone 5×10^-10 molar, saline control 18.17",69.43 ng/mL

# From patent publication US4111923A, “Octapeptides and methods for their production” (Parke, Davis & Company, priority 1976, dated 1978)
